Experimental findings from ChEMBL document CHEMBL2412954, “Synthesis and characterization of time-resolved fluorescence probes for evaluation of competitive binding to melanocortin receptors” (Bioorg Med Chem, 2013) are described below.

Test [1] has as its target T1, Melanocortin receptor 4 (Homo sapiens, UniProt P32245). In words: Displacement of Eu-DTPA-PEGOMSH(7) from human MC4R expressed in […] cells after 1 hr by time-resolved fluorescence assay. It counts as cell-based, HEK293. As to conditions: for Ki: hek293; for pKi: read-out: Ki; call rule not given here.
Test [2] has as its target T1, Melanocortin receptor 4. In words: Displacement of Eu-DTPA-PEGO-NDP-alpha-MSH-NH2 from human MC4R expressed in […] cells after 1 hr by time-resolved fluorescence assay. The class given is cell-based, HEK293. Particulars: for Ki: hek293.

Each structure is given as a SMILES string. pKi: −log10 of the molar value.

T1 sequence (P32245 whole entry): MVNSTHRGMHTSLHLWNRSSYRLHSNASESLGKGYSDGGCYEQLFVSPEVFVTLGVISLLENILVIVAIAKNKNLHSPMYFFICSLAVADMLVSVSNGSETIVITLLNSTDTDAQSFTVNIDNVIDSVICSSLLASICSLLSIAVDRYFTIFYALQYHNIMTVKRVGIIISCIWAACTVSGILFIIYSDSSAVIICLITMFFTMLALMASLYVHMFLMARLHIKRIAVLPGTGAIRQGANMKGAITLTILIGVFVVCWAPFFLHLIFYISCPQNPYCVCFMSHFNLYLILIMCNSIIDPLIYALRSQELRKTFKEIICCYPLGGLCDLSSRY

As for `CC(C)C(O)CCC(C)C(O)CCC(C)C(O)CCC(OCCCCc1cn(CCCCCC(=O)N[C@@H](CO)C(N)=O)nn1)C(C)CCC(O)C(C)CCC(O)C(C)C` (some centres not stated), the Ki result at Melanocortin receptor 4 [1] and at Melanocortin receptor 4 [2] was “Not Active” in each case.

In general, pKi refers to −log10 of the Ki, conventionally taken in molar units. For the compound `CCCC[C@H](NC(=O)[C@H](CO)NC(=O)CCCCCn1cc(CCCCOC(CCC(C)C(O)CCC(C)C(O)CCC(OCCCCc2cn(CCCCCC(=O)N[C@@H](CO)C(=O)N[C@@H](CCCC)C(=O)N[C@@H](CCC(=O)O)C(=O)N[C@@H](Cc3cnc[nH]3)C(=O)N[C@H](Cc3ccccc3)C(=O)N[C@@H](CCCNC(=N)N)C(=O)N[C@@H](Cc3c[nH]c4ccccc34)C(N)=O)nn2)C(C)CCC(O)C(C)CCC(O)C(C)C)C(C)C)nn1)C(=O)N[C@@H](CCC(=O)O)C(=O)N[C@@H](Cc1cnc[nH]1)C(=O)N[C@H](Cc1ccccc1)C(=O)N[C@@H](CCCNC(=N)N)C(=O)N[C@@H](Cc1c[nH]c2ccccc12)C(N)=O` (some centres not stated), at Melanocortin receptor 4 [1], the pKi is 8.77.

For `CC(C)C(O)CCC(C)C(O)CCC(C)C(CCC(O)C(C)CCC(O)C(C)CCC(OCCCCc1cn(CCCCCC(=O)N[C@@H](CO)C(N)=O)nn1)C(C)C)OCCCCc1cn(CCCCCC(=O)N[C@@H](CO)C(N)=O)nn1` (some centres not stated), the Ki entry at Melanocortin receptor 4 [1] and on Melanocortin receptor 4 [2] was “Not Active” each time.

Regarding `CCCC[C@H](NC(=O)[C@H](CO)NC(=O)CCCCCn1cc(CCCCOC(CCC(O)C(C)CCC(O)C(C)CCC(O)C(C)C)C(C)CCC(O)C(C)CCC(O)C(C)C)nn1)C(=O)N[C@@H](CCC(=O)O)C(=O)N[C@@H](Cc1cnc[nH]1)C(=O)N[C@H](Cc1ccccc1)C(=O)N[C@@H](CCCNC(=N)N)C(=O)N[C@@H](Cc1c[nH]c2ccccc12)C(N)=O` (some centres not stated), the pKi on Melanocortin receptor 4 [1] was 8.62; at Melanocortin receptor 4 [2] (read-out: Ki), 7.48.
